Measured values as given in patent publication US6784185B2, “Pharmaceutically active compounds” (Pfizer Inc., priority 2001, dated 2004).

Each compound was assayed against T1, cGMP-specific PDE (PDE5) (Homo sapiens, UniProt O76074) (assay: In vitro PDE inhibitory activity, cGMP PDE5). Conditions: enzyme from human corpus cavernosum tissue or human platelets; low substrate such that IC50≅Ki.
T1 construct: obtained from human corpus cavernosum tissue or human platelets; from tissue; host or cells: human corpus cavernosum tissue or human platelets
Assay type: biochemical
Description: The compounds of the present invention are potent and selective cGMP PDE5 inhibitors. In vitro PDE inhibitory activities against cyclic guanosine 3′,5′-monophosphate (cGMP) and cyclic adenosine 3′,5′-monophosphate (cAMP) phosphodiesterases were determined by measurement of their IC50 values (the concentration of compound required for 50% inhibition of enzyme activity).
The required PDE enzymes were isolated from a variety of sources, including human corpus cavernosum, human platelets, human cardiac ventricle, human skeletal muscle and human and canine retina, essentially by the method of W. J. Thompson and M. M. Appleman (Biochem., 1971, 10, 311). In particular, the cGMP-specific PDE (PDE5) and the cGMP-inhibited cAMP PDE (PDE3) were obtained from human corpus cavernosum tissue or human platelets; the cGMP-stimulated PDE (PDE2) was obtained from human corpus cavernosum or human platelets; the calcium/calmodulin (Ca/CAM)-dependent PDE (PDE1) from human cardiac ventricle; the cAMP-specific PDE (PDE4) from recombinant clone or human skeletal muscle; and the photoreceptor PDE (PDE6) from canine or human retina. Phosphodiesterases 7-11 were generated from full length human recombinant clones transfected into SF9 cells.
Assays were performed either using a modification of the “batch” method of W. J. Thompson et al. (Biochem., 1979, 18, 5228) or using a scintillation proximity assay for the direct detection of AMP/GMP using a modification of the protocol described by Amersham plc under product code TRKQ7090/7100. In summary, the effect of PDE inhibitors was investigated by assaying a fixed amount of enzyme in the presence of varying inhibitor concentrations and low substrate, (cGMP or cAMP in a 3:1 ratio unlabelled to [^3H]-labeled at a conc ˜1/2 Km) such that IC50≅Ki. The final assay volume was made up to 102 μl with assay buffer [20 mM Tris-HCl pH 7.4, 5 mM MgCl2, 1 mg/ml bovine serum albumin]. Reactions were initiated with enzyme, incubated for 30-60 min at 30° C. to give <30% substrate turnover and terminated with 50 μl yttrium silicate SPA beads (containing 3 mM of the respective unlabelled cyclic nucleotide for PDEs 3, 9 and 11). Plates were re-sealed and shaken for 20 min, after which the beads were allowed to settle for 30 min in the dark and then counted on a TopCount plate reader (Packard, Meriden, Conn.). Radioactivity units were converted to % activity of an uninhibited control (100%), plotted against inhibitor concentration and inhibitor IC50 values obtained using the ‘Fit Curve’ Microsoft Excel extension or in-house equivalent.

Point of comparison: CCc1c2nc(-c3cc(C(C)=O)ccc3OCC(C)C)[nH]c(=O)c2nn1C1CN(C2CCC2)C1 [Example 2], IC50 13.8 nM. Against it:
- CCCCOc1ccc(C(C)=O)cc1-c1nc2c(CC)n(C3CN(C(C)C)C3)nc2c(=O)[nH]1 [Example 3] — 1.7-fold higher, 23 nM
- CCCOc1ccc(C(C)=O)cc1-c1nc2c(CC)n(CC(=O)OC(C)(C)C)nc2c(=O)[nH]1 [Example 6] — 6.3-fold lower, 2.2 nM
- CCCOc1ccc(C(C)=O)cc1-c1nc2c(CC)n(CCCC(=O)O)nc2c(=O)[nH]1 [Example 12, 4-[5-(5-Acetyl-2-propoxyphenyl)-3-ethyl-7-oxo-6,7-dihydro-2H-pyrazolo[4,3-d]pyrimidin-2-yl]butanoic Acid] — 7.7-fold lower, 1.8 nM
- CCCOc1ccc(C(C)=O)cc1-c1nc2c(CC)n(CC(=O)N(C)C)nc2c(=O)[nH]1 [Example 13, 2-[5-(5-Acetyl-2-propoxyphenyl)-3-ethyl-7-oxo-6,7-dihydro-2H-pyrazolo[4,3-d]pyrimidin-2-yl]-N,N-dimethylacetamide] — within 1.5-fold, 11.9 nM
